Marks after values point to notes of the source that are not given here. One block for each compound: values may come before it.
Tests used:
[1] = system: uninephrectomized anesthetized rats, renal ischemia/reperfusion hypertension; test: Model of acute angiotensin-mediated renal hypertension in anesthetized rats (Example I); details: for DBP mean change ± S.D: DBP decrease after 10 minutes from the start of drug administration, lercanidipine 10 μg/kg, lisinopril 30 μg/kg i.v. or both, Anova factorial model; for effect on systolic blood pressure and diastolic blood pressure compared to vehicle (and, for the combination, to either drug alone): lercanidipine 10 μg/kg i.v. or both; for DBP / HR / SBP: mean ± S.E.M.
Experimental: Male Sprague-Dawley rats, weighing 250-300 g, were anaesthetized with pentobarbital sodium (35 mg/kg, i.p.) and placed on a thermic blanket. The temperature was maintained at 37° C. with a thermoregulator via a rectal probe. The animals were tracheotomized to facilitate spontaneous breathing. A polyethylene catheter was placed in the left jugular vein to allow for infusion of pentobarbital sodium to maintain anesthesia. The left femoral vein and artery were cannulated with polyethylene catheters to allow drugs administration and to monitor blood pressure, respectively.
The animals then underwent a left nephrectomy by excising the left kidney via a flank incision. The right kidney and renal vein, artery and ureter then were exposed via a right retroperitoneal incision, under a dissecting microscope. Silk threads were positioned loosely around both vessels and ureter. The cavity was then covered with Vaseline oil.
After 30-60 minutes of basal recordings of arterial blood pressure and heart rate the threads around the renal vessels and ureter were tied close to the renal hilum to induce complete renal ischemia of the right kidney. After 2 hours of ischemia (designated as “120” in Tables 4-7), the threads were removed to allow renal reperfusion and urine output. […] To evaluate the effects of drugs administration on blood pressure and heart rate, two-way ANOVA and Dunnet's test was used.

[2] = cited from earlier work
isolated rat aorta = details: in vitro; even after the drug has been removed for 6 hours; cited from earlier work
[3] = system: uninephrectomized anesthetized rats, renal ischemia/reperfusion hypertension; test: Model of acute angiotensin-mediated renal hypertension in anesthetized rats (Example VI, with HCTZ); type: in vivo, Sprague-Dawley rats; details: for DBP / HR / SBP: mean ± S.E.M.
Text: The animals were tracheotomized to facilitate spontaneous breathing.
Silk threads were placed around both vessels and ureter. The cavity was then covered with Vaseline oil.
Results are expressed as mean values ±S.E in the tables and as mean values ±S.E. and Δ±S.E. changes in the figures.

[4] = time 0 min, basal, before ischemia and before drug
[5] = time 120 min, end of ischemia, before drug
[6] = time 125 min, 5 min after reperfusion, at drug administration (reference value)
[7] = time 130 min (5 min after i.v. drug), lisinopril 30 μg/kg, lercanidipine 10 μg/kg or both
[8] = time 135 min (10 min after i.v. drug), lisinopril 30 μg/kg, lercanidipine 10 μg/kg or both
[9] = time 150 min (25 min after i.v. drug), lisinopril 30 μg/kg, lercanidipine 10 μg/kg or both
[10] = time 165 min (40 min after i.v. drug), lisinopril 30 μg/kg, lercanidipine 10 μg/kg or both
[11] = time 180 min (55 min after i.v. drug), lisinopril 30 μg/kg, lercanidipine 10 μg/kg or both
[12] = time 130 min (5 min after i.v. drug), lisinopril+HCTZ 10+12 μg/kg, lercanidipine 7.5 μg/kg or all three
[13] = time 135 min (10 min after i.v. drug), lisinopril+HCTZ 10+12 μg/kg, lercanidipine 7.5 μg/kg or all three
[14] = time 150 min (25 min after i.v. drug), lisinopril+HCTZ 10+12 μg/kg, lercanidipine 7.5 μg/kg or all three
[15] = time 165 min (40 min after i.v. drug), lisinopril+HCTZ 10+12 μg/kg, lercanidipine 7.5 μg/kg or all three
[16] = time 180 min (55 min after i.v. drug), lisinopril+HCTZ 10+12 μg/kg, lercanidipine 7.5 μg/kg or all three

HR [1, 4]: 393.3 ± 8.8 beats/min | HR [1, 5]: 390.3 ± 10.0 beats/min | HR [1, 7]: 408.3 ± 12.3 beats/min | HR [1, 8]: 405.8 ± 9.7 beats/min | HR [1, 9]: 406.7 ± 13.1 beats/min | HR [1, 10]: 406.7 ± 18.2 beats/min | HR [1, 11]: 400.0 ± 14.6 beats/min
Structure (SMILES): NCCCC[C@H](N[C@@H](CCc1ccccc1)C(=O)O)C(=O)N1CCC[C@H]1C(=O)O [lisinopril]
DBP mean change ± S.D [1]: 26.83 ± 4.40^a | effect on systolic blood pressure and diastolic blood pressure compared to vehicle (and, for the combination, to either drug alone) ([1]; lisinopril 30 μg/kg): significant decreases | DBP [1, 4]: 73.3 ± 3.2 mmHg | SBP [1, 4]: 104.2 ± 3.0 mmHg | DBP [1, 5]: 68.3 ± 2.3 mmHg | SBP [1, 5]: 99.3 ± 2.4 mmHg | DBP [1, 6]: 117.3 ± 1.3 mmHg | SBP [1, 6]: 154.3 ± 3.6 mmHg | DBP [1, 7]: 92.5 ± 1.0^b mmHg | SBP [1, 7]: 120.7 ± 1.7^b mmHg | DBP [1, 8]: 90.5 ± 1.2^b mmHg | SBP [1, 8]: 119.0 ± 2.1^b mmHg | DBP [1, 9]: 77.7 ± 4.1^b mmHg | SBP [1, 9]: 111.0 ± 4.0^b mmHg | DBP [1, 10]: 64.0 ± 4.8^b mmHg | SBP [1, 10]: 96.0 ± 6.0^b mmHg | DBP [1, 11]: 57.3 ± 5.1^b mmHg | SBP [1, 11]: 90.2 ± 6.8^b mmHg | time of peak serum concentrations ([2]; following oral administration): ≤ 7 h

HR [1, 4]: 359.6 ± 13.9 beats/min | HR [1, 5]: 359.3 ± 7.8 beats/min | HR [1, 6]: 383.6 ± 9.9 beats/min | HR [1, 7]: 433.1 ± 8.9^b beats/min | HR [1, 8]: 448.0 ± 6.2^b beats/min | HR [1, 9]: 443.6 ± 8.2^b beats/min | HR [1, 10]: 435.5 ± 11.2^b beats/min | HR [1, 11]: 422.8 ± 12.0^b beats/min | HR [3, 4]: 380.0 ± 17.2 beats/min | HR [3, 5]: 376.0 ± 17.0 beats/min | HR [3, 12]: 434.0 ± 26.9 b beats/min | HR [3, 13]: 448.0 ± 14.4 b beats/min | HR [3, 14]: 444.0 ± 16.1 b beats/min | HR [3, 15]: 442.0 ± 20.4 b beats/min | HR [3, 16]: 434.0 ± 20.9 b beats/min
Structure (SMILES): COC(=O)C1=C(C)NC(C)=C(C(=O)OC(C)(C)CN(C)CCC(c2ccccc2)c2ccccc2)C1c1cccc([N+](=O)[O-])c1 (centres unmarked) [lercanidipine, methyl 1,1,N-trimethyl-N-(3,3-diphenylpropyl)-2-aminoethyl 1,4-dihydro-2,6-dimethyl-4-(3-nitrophenyl)pyridine-3,5-dicarboxylate]
DBP mean change ± S.D [1]: 26.13 ± 8.68^a | effect on systolic blood pressure and diastolic blood pressure compared to vehicle (and, for the combination, to either drug alone) ([1]; lisinopril 30 μg/kg): significant decreases | DBP [1, 4]: 69.8 ± 2.5 mmHg | SBP [1, 4]: 110.4 ± 3.6 mmHg | DBP [1, 5]: 70.6 ± 5.4 mmHg | SBP [1, 5]: 114.5 ± 6.5 mmHg | DBP [1, 6]: 119.3 ± 5.2 mmHg | SBP [1, 6]: 167.6 ± 8.9 mmHg | DBP [1, 7]: 97.1 ± 3.1^b mmHg | SBP [1, 7]: 140.4 ± 3.8^b mmHg | DBP [1, 8]: 93.1 ± 4.0^b mmHg | SBP [1, 8]: 140.5 ± 3.7^b mmHg | DBP [1, 9]: 89.5 ± 4.3^b mmHg | SBP [1, 9]: 139.4 ± 3.7^b mmHg | DBP [1, 10]: 83.5 ± 4.6^b mmHg | SBP [1, 10]: 132.0 ± 5.3^b mmHg | DBP [1, 11]: 78.8 ± 4.0^b mmHg | SBP [1, 11]: 128.1 ± 4.7^b mmHg | isolated rat aorta response to high K+ (isolated rat aorta): attenuated | effect on blood pressure (in words) ([3]; i.v. at peak of reperfusion hypertension, lisinopril+HCTZ 10+12 μg/kg, lercanidipine 7.5 μg/kg or all three): statistically significant decrease in diastolic blood pressure | effect on heart rate (in words) ([3]; lisinopril+HCTZ 10+12 μg/kg, lercanidipine 7.5 μg/kg i.v. or all three): positive chronotropic effect | DBP [3, 4]: 82.7 ± 2.7 mmHg | SBP [3, 4]: 115.0 ± 3.1 mmHg | DBP [3, 5]: 65.8 ± 4.6 mmHg | SBP [3, 5]: 103.8 ± 6.4 mmHg | DBP [3, 6]: 107.0 ± 4.0 mmHg | SBP [3, 6]: 138.0 ± 4.6 mmHg | DBP [3, 12]: 87.0 ± 4.3 b mmHg | SBP [3, 12]: 123.7 ± 3.2 mmHg | DBP [3, 13]: 86.7 ± 5.0 b mmHg | SBP [3, 13]: 121.7 ± 4.9 mmHg | DBP [3, 14]: 86.0 ± 8.2 b mmHg | SBP [3, 14]: 121.0 ± 7.0 mmHg | DBP [3, 15]: 78.0 ± 7.6 b mmHg | SBP [3, 15]: 112.3 ± 6.1 b mmHg | DBP [3, 16]: 66.3 ± 8.0 b mmHg | SBP [3, 16]: 99.8 ± 7.2 b mmHg | elimination route ([2]; in vivo): essentially via the hepatic route | time of peak plasma levels following dosing ([2]; unmodified release oral dosage form): 2 to 3 h
